In patent US9237744B2, “Preservative solution for cells, tissues and organs containing rare sugar and preservative method thereof” (NATIONAL UNIVERSITY CORPORATION KAGAWA UNIVERSITY, priority 2004, dated 2016):

What was measured:
HFB (human fibroblast) [1] = test: Survival rate of cells after freeze-preservation at −80° C. for 24 hours, trypan blue (Example 1); format: cell-based; details: concentration 50 mM (foregoing studies)
Procedure: 1. Cells used: Hela (human cervical cancer), OVCAR-3 (human ovarian cancer), HuH-7 (human liver cancer), HaCaT (human skin keratinocyte), HFB (human fibroblast) and NIH3T3 (mouse fibroblast). Saccharides D-allose and the like were added to culture medium, Cell Banker (commercially available preservative solution) and DMSO at concentrations of 25 mM and 50 mM. Monosaccharides such as D-glucose, D-fructose, D-mannose and D-galactose which are present in nature in large quantities and D-allose, D-psicose, D-altrose, allitol, D-talitol and L-sorbose as rare sugars were used. Further, trehalose as disaccharide was used. The cells were preserved for 24 hours by being frozen at −80° C. 1) Survival rate of cells: One day later, the cells were thawed, and the survival rate was estimated by trypan blue dying method.

HFB (human fibroblast) [2] = test: Cell growth after thawing of freeze-preserved cells, MTT assay (Example 1); format: cell-based; details: culture medium plus sugar, in comparison with other cases (FIG. 2)
Procedure: (§1) 1. Cells used: Hela (human cervical cancer), OVCAR-3 (human ovarian cancer), HuH-7 (human liver cancer), HaCaT (human skin keratinocyte), HFB (human fibroblast) and NIH3T3 (mouse fibroblast). Saccharides D-allose and the like were added to culture medium, Cell Banker (commercially available preservative solution) and DMSO at concentrations of 25 mM and 50 mM. Monosaccharides such as D-glucose, D-fructose, D-mannose and D-galactose which are present in nature in large quantities and D-allose, D-psicose, D-altrose, allitol, D-talitol and L-sorbose as rare sugars were used. Further, trehalose as disaccharide was used. The cells were preserved for 24 hours by being frozen at −80° C. 2) Cell growth: One day later, the cells were thawed, and 0.25˜2×10^4 cells/well were spread on 96-well plate with 0.1 mL medium. After a prescribed period of time, the cell growth was measured by MTT assay.

[3] = system: NIH3T3 (mouse fibroblast); test: as above; format: cell-based; details: same experiment as with HFB
Procedure: as §1

[4] = system: OVCAR-3, HaCaT and HDF cells; test: Cell survival rate with D-allose combined with DMSO at low concentration (Example 2); format: cell-based, human; details: 1 or 2% of DMSO with addition of D-allose (FIG. 9)
Procedure: 1. Cells used: Hela (human cervical cancer), OVCAR-3 (human ovarian cancer), HaCaT (human skin keratinocyte), HFB (human fibroblast) and NIH3T3 (mouse fibroblast). Saccharides D-allose and the like were added to culture medium, Cell Banker (commercially available preservative solution) and DMSO at concentrations of 0.2, 0.4, 0.6, 0.8 and 1M. Monosaccharides such as D-glucose, D-fructose, D-mannose and D-galactose which are present in nature in large quantities and D-allose, D-altrose, D-psicose, L-psicose, D-sorbose, L-sorbose, D-tagatose, L-tagatose and L-fructose as rare sugars were used. Further, trehalose as disaccharide was used. The cells frozen with D-allose were freeze-preserved at −80° C. and in liquid nitrogen for 24 hours, 1 week and 4 weeks. 1) Survival rate of cells: The cells were thawed, and the survival rate was estimated by a trypan blue dying method. 6) The effect of cell preservation under sub-optimal conditions by reducing the concentration of DMSO to 1, 2 or 3% was comparatively examined. OVCAR-3, HaCaT and HDF cells were used as cells. Regarding the preservation effect with DMSO, it was confirmed that the survival rate was approximately 70% or more with the use of 1 or 2% of DMSO by addition of D-allose (FIG. 9).

EGF mRNA = test: Kidney preservation in UW solution at 4° C., EGF mRNA by northern blot; parameters: species or system rat; details: D-allose 5 mg/ml in UW solution, in 48 hours and 78 hours (FIG. 11)
Procedure: Object: male rats, 200 g to 280 g Preparations of experiment: A rat is fasted 12 hours before the experiment. After the rat is anesthetized by intraperitoneal administration of nenbutal, the stomach is shaved with an electric razor, cleaned with ether, and cut open. The abdominal aorta upper the renal artery is clamped. The UW solution is adapted to be perfused from the abdominal aorta under the renal artery. Grouping: Control group: UW solution only, D-allose group: D-allose is added to the UW solution at a concentration of 5 mg/ml. Experimental method: In the control group and the D-allose group, the kidney is withdrawn after perfusion of the UW solution in each group, put in the UW solution of each of the control group and the D-allose group, […] Estimation: Expression of detrimental factor ICAM-1 and regeneration factor EGF in mRNA was examined by northern blot.

MPO = test: Renal ischemic reperfusion model, MPO as index of accumulation of leukocytes; format: in vivo, rat; details: 400 mg/kg intravenously 30 minutes before renal ischemia; peak after 6 hours of reperfusion (FIG. 13)
Procedure: Object: male rats with a body weight of 200˜250 g Experimental method: After anesthetization of a rat with nenbutal, a renal ischemic model is prepared. Renal ischemic model: After extraction of the right kidney, the left kidney blood vessel is clamped for 45 minutes. 400 mg/kg of the solution is intravenously administered to the D-allose group 30 minutes before the renal ischemia. A raw feed is administered to the control group. Estimation: Change with time of a CINC-1 protein amount and MPO as an index of accumulation of leukocytes after ischemic reperfusion

human sperms = test: Movement rate of frozen and thawed sperms, visual observation with Makler Counting Chamber; format: cell-based; details: KS-II solution with D-allose alone versus glucose only, liquid nitrogen 1 month, P=0.0469 (FIG. 16)
Procedure: Semens of ten healthy men who were 24 to 44 years old (mean: 29.9) with normal semens were used.
The semen was manually collected after abstinence for 3 to 5 days, liquefied at room temperature, and then washed and concentrated by a 80% Percoll liquid agitation density gradient method. The resulting sperm turbid solution (0.2 ml) and the freeze-preservative solution were mixed in equal amounts, and the mixture was charged into a freezing tube (serum tube, Sumitomo Bakelite), frozen by a liquid nitrogen vapor freezing method, and then preserved in a liquid nitrogen tank. The freeze-preservative solution (refer to FIG. 14) was used such that the mixing amounts of D-allose and D-glucose were changed (A group=1:0, B group=3:1, C group=1:1, D group=1:3, E group=0:1) without changing the number of moles of the sugar in a KS-II sperm preservative solution. One month later, the frozen sperms were thawed in warm water (30° C.) with shaking. Further, for removal of the freeze-preservative solution and reconcentration, the density gradient centrifugation method was conducted, and the resulting sperm floating solution was examined.
As the examination method, the sperm movement rate was measured by a visual observation method with Makler Counting Chamber and C-IMAGING SYSTEMS, and the survival rate was measured by 0.5% Eosin Y dying. […]

[5] = Murata et al., J. Bioengineering and Bioscience, 2003; cited from earlier work

In the case of `O=C[C@H](O)[C@H](O)[C@H](O)[C@H](O)CO` [D-allose], the “improvement effect as preservative agent” value (HFB (human fibroblast) [1]) is reported as “no great improvement effect was obtained”, the “growth rate of cells after thawing” value (HFB (human fibroblast) [2]) is reported as “growth rate was high” and the “growth rate of cells after thawing” value [3] is reported as “the same results were obtained”. For the same molecule, the survival rate [4] was no less than 70%, the “expression of EGF mRNA during kidney preservation” value (EGF mRNA) was “still maintained” and the “MPO as the index of accumulation of leukocytes” value (MPO) was “inhibited”. The “movement rate of thawed sperms” value (human sperms) was “high in movement rate of thawed sperms in the eight of nine cases” and the antioxidation activity [5] was “proved to have the antioxidation activity”.
